The structures appear in SMILES notation.

Data set [1] is described as follows: Rat skin flux enhancement, side by side diffusion cell. Conditions: for Skin flux enhancement by 3% PerRx (in words): 3% PerRx vs control at pH 7.4; for Skin flux, control: control formulation without PerRx; for Skin flux, control / Flux enhancement (S.F. Control + 3% PerRx)/(S.F. control) / Skin flux, control + 3% PerRx: hairless rat skin; for Skin flux, control / Skin flux, control + 3% PerRx: donor suspension pH 7.4, 37° C.; for Flux enhancement (S.F. Control + 3% PerRx)/(S.F. control): ratio of skin flux with 3% PerRx to control, pH 7.4; for Skin flux, control + 3% PerRx: with 3% PerRx enhancer. Format: in vitro ADME. As to the method:
[…] The dorsal skin from a rat was excised and mounted on a side by side diffusion cell assembly with a contact area of 0.95 cm^2 and cell volume of 2.5 ml. The temperature of the diffusion cell was regulated at 37° C. The excised rat skin was clamped between the donor cell and the receiver with the dorsal stratum corneum facing the donor cell.
The model drug molecules were suspended in physiological phosphate buffer solution, of pH 7.4. The sampling volume of 1.0 ml was removed at the time point and the sampling volume was replaced with a fresh volume of the buffer solution. Skin flux of the drugs was measured in the absence or presence of the enhancer N,N-dimethylamino isobutyric acid propylene glycol mono laureate (also known as dodecanoic acid 2-(3-dimethylamethyl-propionyloxy)-propylester, or PerRx™).

Data set [2] can be described thus: Aqueous solubility with addition of 3% PerRx. The note with it: 3% PerRx added to control formulation. The format is physicochemical. From the text: So in the present work, it is believed that at pH 7.4 addition of the acetic acid functional group into polar head position will affect tremendously the physical chemical properties of molecules. […] See the results table.

`COc1ccc2c(c1)c(CC(=O)O)c(C)n2C(=O)c1ccc(Cl)cc1` [INDOM, indomethacin]: in data set [1], the “Skin flux enhancement by 3% PerRx (in words)” value is given as “enhanced most”; the “Skin flux, control” value turned out to be 0.5 μg/cm^2-hr; the “Flux enhancement (S.F. Control + 3% PerRx)/(S.F. control)” value is given as 14X; the “Skin flux, control + 3% PerRx” value came to 7.0 μg/cm^2-hr.
For the molecule `O=[N+]([O-])O[C@H]1CO[C@H]2[C@@H]1OC[C@H]2O[N+](=O)[O-]` [ISDN, Isosorbide di nitrate], in data set [1], the “Skin flux, control” value was determined as 20 μg/cm^2-hr; the “Flux enhancement (S.F. Control + 3% PerRx)/(S.F. control)” value was found to be 2X; the “Skin flux, control + 3% PerRx” value was 40 μg/cm^2-hr.
On to `O=[N+]([O-])O[C@@H]1CO[C@H]2[C@@H]1OC[C@@H]2O` [ISMN, Isosorbide mono nitrate], for which, in data set [1], the “Skin flux enhancement by 3% PerRx (in words)” value is listed as “enhanced most”; the “Skin flux, control” value is recorded as 40 μg/cm^2-hr; the “Flux enhancement (S.F. Control + 3% PerRx)/(S.F. control)” value came out at 18 X; the “Skin flux, control + 3% PerRx” value turned out to be 700 μg/cm^2-hr. The “Effect of addition of 3% PerRx on aqueous solubility” value in data set [2] is on record as “does not affect the aqueous solubility”.

The record behind these values is patent US20110065769A1, “Transdermal delivery of ionizable drugs” (priority 2009, published 2011).
